In paper PMC8863579, “Effects of pharmacological inhibition of the sodium‐dependent phosphate cotransporter 2b (NPT2b) on intestinal phosphate absorption in mouse and rat models” (Pharmacology Research & Perspectives, 2022):

Key:
rat NPT2b = molecular target: T1, rat NPT2b (Rattus norvegicus, UniProt Q9JJ09); assay: 33P-phosphate uptake in CHO cells expressing rat NPT2b; type: cell-based; details: geometric mean; 2.5 µM phosphate, 60 min, room temperature
T1 construct: Full-Length cDNA Cloning and Generation of Cell Lines Over-Expressing Human, Mouse, and Rat NPT2b; host or cells: CHO-K1 / T-REx CHO, pcDNA5/TO, tetracycline-induced
T1 sequence (Q9JJ09 1-695): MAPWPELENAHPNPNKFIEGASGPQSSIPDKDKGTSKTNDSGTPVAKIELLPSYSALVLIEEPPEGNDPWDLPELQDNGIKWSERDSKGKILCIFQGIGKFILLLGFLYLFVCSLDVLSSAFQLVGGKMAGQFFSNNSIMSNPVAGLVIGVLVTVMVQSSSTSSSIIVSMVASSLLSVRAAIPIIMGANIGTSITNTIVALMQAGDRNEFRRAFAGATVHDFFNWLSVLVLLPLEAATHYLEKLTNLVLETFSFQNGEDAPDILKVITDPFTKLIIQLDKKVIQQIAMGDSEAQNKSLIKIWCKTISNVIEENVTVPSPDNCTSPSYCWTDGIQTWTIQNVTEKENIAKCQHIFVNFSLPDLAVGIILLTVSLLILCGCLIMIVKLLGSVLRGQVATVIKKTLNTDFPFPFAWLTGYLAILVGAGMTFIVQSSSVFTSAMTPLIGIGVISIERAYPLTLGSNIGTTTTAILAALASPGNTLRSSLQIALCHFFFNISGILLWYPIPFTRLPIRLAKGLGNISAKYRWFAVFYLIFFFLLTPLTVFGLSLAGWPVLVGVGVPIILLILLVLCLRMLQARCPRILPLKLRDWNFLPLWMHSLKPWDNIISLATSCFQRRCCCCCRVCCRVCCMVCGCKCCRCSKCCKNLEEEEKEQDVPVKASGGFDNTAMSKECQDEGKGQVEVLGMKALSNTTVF
Experimental: (§1) T‐Rex™ Chinese Hamster Ovary cells (CHO; Thermo Fisher Scientific) stably expressing human, mouse, or rat NPT2b under a tetracycline‐inducible promoter were generated using standard cDNA transfection and clone selection procedures (see Supporting Information). Cells were plated in 96‐well CytoStar‐T® scintillating microplates and were incubated overnight in growth media plus 100 ng/ml of tetracycline to induce expression of NPT2b. The next day, cells were washed 3 times with 200 µl assay buffer (137 mM NaCl, 5.4 mM KCl, 2.8 mM CaCl2, 1.2 mM MgSO4, and 14 mM Tris‐HCl buffer, pH 7.5). LY3358966 serially diluted 1‐to‐3 in DMSO was added to cells with assay buffer. An equal volume of H3 ^33PO4 (PerkinElmer) in assay buffer supplemented with 5 µM potassium phosphate was then added to initiate radiolabeled phosphate (^33P‐phosphate) uptake. The final phosphate concentration was 2.5 µM and the final DMSO concentration was 1%. Following a 60‐min incubation at room temperature, an equal volume of assay buffer containing 400 µM phloretin was added to stop ^33P‐phosphate uptake. The plate was immediately read on a Wallac MicroBeta Trilux liquid scintillation counter. Percent inhibition at all concentrations tested was calculated, and IC50 values were then determined using a 4‐parameter logistic curve fitting equation.
The vendors for target cDNA are listed in supplemental Table 1. […]

Human NPT2c = molecular target: T2, Human NPT2c (Homo sapiens, UniProt Q8N130); assay: 33P-phosphate uptake in CHO cells expressing human NPT2c; type: cell-based
T2 construct: Full Length cDNA Cloning and Generation of Cell Lines Over-Expressing Human NPT2a, NPT2c, Pit1, and Pit2; host or cells: CHO-K1 / T-REx CHO, pJTI R4 CMV-TO, tetracycline-induced
T2 sequence (Q8N130 1-599): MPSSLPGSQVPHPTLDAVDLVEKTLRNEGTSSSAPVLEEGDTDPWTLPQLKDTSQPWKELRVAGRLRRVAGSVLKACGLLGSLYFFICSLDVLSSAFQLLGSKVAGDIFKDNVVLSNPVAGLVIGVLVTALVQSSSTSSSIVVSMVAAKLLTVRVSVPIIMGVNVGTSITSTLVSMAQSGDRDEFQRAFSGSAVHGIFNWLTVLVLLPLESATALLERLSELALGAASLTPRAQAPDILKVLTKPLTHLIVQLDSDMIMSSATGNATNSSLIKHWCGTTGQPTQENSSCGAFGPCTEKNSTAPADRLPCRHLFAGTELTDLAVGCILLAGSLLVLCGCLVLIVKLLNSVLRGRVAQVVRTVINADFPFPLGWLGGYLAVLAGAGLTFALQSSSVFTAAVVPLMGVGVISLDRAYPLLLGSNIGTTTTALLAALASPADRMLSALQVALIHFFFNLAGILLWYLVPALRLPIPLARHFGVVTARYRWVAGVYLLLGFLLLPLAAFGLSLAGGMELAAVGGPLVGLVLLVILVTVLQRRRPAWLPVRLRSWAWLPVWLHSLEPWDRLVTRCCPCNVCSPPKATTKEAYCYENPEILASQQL
Experimental: as §1, with “The final phosphate concentration was 2.5 µM and the final DMSO concentration was 1%. Following a 60‐min incubation at room temperature, an equal volume of assay buffer containing 400 µM phloretin was added to stop ^33P‐phosphate uptake.” left out
Similar methods were used to measure the effects of LY3358966 on other transporters of interest, except that constitutive promoters were used to generate CHO cells over‐expressing human PiT1 and PiT2. The ^33P‐phosphate uptake was measured after 45 min at 20°C for the NPT2a, NPT2c, PiT1, and PiT2 assays. […]

SMILES: CC1(C)CN(C(=O)NCCCCO)CCN1Cc1cccc(C(=O)Nc2sc3c(c2C(=O)Nc2cc(F)c(CCc4ccc(C(=O)O)cc4)c(F)c2)CCCC3)c1 [LY3358966, 4‐[2‐[2,6‐difluoro‐4‐[[2‐[[3‐[[4‐(4‐hydroxybutylcarbamoyl)‐2,2‐dimethyl‐piperazin‐1‐yl]methyl]benzoyl]amino]‐4,5,6,7‐tetrahydrobenzothiophene‐3‐carbonyl]amino]phenyl]ethyl]benzoic acid]
- IC50 (rat NPT2b): 0.0268 µM
- IC50 (Human NPT2c; geometric mean, 45 min at 20°C): 0.251 µM
- Selectivity (Human NPT2c; ratio of IC50 of human NPT2c assay to that of human NPT2b assay): 8
